The record followed here is patent publication US11566022B2, “3-(5-methoxy-1-oxoisoindolin-2-yl)piperidine-2,6-dione derivatives and uses thereof” (NOVARTIS AG, priority 2019, dated 2023).

The test addresses HiBit-WIZ fusion protein (Homo sapiens, UniProt O95785+Q96SW2). Put plainly: Quantification of WIZ protein levels in HiBit tag fusion protein assay (WIZ HiBit assay in 293T cells). Type of test: cell-based. Details: Dmax: dose or concentration left out as unconfirmed.
The mark [1] stands for this setting: HEK-293T, 100 minus Amax; 293T cells; read-out: % degradation of WIZ (100-Amax).
Setting [2] is: HEK-293T, DMSO-normalized, curve-fitted percentage of WIZ-HiBit remaining at 25 uM; 293T cells; read-out: WIZ Amax.
Setting [3] is: WIZ HiBit assay in 293T cells; 10-point, 5-fold dose response, highest concentration 25 μM, about 18 hours; read-out: WIZ AC50.

Read-outs that look alike come from different tables or passages of the source. Where only a bound is given, the exact number is not on record here.

Chain of HiBit-WIZ fusion protein (O95785 whole entry, the tested form may be a part): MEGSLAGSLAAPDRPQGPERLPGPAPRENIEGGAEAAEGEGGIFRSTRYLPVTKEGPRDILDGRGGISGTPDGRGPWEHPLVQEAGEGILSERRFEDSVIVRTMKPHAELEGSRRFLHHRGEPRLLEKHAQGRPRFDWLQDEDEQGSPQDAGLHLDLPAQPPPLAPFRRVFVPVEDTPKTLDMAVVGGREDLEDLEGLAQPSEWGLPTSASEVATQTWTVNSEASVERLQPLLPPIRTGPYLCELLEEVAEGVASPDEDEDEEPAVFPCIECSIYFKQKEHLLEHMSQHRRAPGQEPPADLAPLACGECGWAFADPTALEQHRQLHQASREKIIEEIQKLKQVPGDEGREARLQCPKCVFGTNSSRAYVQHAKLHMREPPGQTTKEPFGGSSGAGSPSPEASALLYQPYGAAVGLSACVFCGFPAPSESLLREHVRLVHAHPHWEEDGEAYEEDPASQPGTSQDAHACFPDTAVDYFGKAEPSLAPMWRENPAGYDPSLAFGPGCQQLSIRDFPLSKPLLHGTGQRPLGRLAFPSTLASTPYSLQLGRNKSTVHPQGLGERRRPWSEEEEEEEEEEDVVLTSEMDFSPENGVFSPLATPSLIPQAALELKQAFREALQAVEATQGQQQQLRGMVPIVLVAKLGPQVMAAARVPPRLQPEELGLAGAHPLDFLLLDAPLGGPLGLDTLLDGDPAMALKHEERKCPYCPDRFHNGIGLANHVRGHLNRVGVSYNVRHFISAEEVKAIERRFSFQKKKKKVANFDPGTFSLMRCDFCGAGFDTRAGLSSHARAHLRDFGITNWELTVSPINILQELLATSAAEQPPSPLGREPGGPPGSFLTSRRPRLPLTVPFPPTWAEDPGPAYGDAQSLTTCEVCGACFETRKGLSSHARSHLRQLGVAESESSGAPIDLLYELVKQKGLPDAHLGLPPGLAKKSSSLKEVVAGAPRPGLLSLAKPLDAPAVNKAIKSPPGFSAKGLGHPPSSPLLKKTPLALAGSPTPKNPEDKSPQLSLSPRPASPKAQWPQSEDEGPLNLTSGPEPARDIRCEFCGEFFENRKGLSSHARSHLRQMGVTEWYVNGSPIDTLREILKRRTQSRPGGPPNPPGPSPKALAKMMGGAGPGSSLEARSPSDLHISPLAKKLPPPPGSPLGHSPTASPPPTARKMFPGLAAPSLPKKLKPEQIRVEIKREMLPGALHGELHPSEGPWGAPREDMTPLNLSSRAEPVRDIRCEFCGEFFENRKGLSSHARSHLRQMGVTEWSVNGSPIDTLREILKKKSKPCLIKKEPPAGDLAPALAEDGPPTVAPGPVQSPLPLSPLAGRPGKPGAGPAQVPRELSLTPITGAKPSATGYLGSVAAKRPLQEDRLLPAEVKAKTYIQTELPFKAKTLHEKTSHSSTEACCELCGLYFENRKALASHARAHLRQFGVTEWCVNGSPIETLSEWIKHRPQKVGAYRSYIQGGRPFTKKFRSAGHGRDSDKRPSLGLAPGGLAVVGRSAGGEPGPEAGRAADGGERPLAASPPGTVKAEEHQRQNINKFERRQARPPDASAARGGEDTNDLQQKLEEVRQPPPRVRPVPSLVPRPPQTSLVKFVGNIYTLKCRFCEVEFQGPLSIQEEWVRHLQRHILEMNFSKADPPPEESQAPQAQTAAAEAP
Chain of HiBit-WIZ fusion protein (Q96SW2 whole entry, the tested form may be a part): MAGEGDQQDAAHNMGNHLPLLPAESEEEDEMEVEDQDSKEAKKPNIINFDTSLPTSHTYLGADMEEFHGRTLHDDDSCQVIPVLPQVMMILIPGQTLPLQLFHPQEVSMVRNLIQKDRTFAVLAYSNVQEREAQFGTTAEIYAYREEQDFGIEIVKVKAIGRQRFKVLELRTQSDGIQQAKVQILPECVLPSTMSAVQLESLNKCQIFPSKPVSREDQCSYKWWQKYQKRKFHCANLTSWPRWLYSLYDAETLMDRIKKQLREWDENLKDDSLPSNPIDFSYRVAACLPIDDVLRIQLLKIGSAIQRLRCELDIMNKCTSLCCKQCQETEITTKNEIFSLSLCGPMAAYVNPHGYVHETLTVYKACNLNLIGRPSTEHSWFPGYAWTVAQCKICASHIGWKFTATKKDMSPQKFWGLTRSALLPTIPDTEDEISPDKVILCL
Chain of HiBit-WIZ fusion protein (Q16531 whole entry partner, the tested form may be a part): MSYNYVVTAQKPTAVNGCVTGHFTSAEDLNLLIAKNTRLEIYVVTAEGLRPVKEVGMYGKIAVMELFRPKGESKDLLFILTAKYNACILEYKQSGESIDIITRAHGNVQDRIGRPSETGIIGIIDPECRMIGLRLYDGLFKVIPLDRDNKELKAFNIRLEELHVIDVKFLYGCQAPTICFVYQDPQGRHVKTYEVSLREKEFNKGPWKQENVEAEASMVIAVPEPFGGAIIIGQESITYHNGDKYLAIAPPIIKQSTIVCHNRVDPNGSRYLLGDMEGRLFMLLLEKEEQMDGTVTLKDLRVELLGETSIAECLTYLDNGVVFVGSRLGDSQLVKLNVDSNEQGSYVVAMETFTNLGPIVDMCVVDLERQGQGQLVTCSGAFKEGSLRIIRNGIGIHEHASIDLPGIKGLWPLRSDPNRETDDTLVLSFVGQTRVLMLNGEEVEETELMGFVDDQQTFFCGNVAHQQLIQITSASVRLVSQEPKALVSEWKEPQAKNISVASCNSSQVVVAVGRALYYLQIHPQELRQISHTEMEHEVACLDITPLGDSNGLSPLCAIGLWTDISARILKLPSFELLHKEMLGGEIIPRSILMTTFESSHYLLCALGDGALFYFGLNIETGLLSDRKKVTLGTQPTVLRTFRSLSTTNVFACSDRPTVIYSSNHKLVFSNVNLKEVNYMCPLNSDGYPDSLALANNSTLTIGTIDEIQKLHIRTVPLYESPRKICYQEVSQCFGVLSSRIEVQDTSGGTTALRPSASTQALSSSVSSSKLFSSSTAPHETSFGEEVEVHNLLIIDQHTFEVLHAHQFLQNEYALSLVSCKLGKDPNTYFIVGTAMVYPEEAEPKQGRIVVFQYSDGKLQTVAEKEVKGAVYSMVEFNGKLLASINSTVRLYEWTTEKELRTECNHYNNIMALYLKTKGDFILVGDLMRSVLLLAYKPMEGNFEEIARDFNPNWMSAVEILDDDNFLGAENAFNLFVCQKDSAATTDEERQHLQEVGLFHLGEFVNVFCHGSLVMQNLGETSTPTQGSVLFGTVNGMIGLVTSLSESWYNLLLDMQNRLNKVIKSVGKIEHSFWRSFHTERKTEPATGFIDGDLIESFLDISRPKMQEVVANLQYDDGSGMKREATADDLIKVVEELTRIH

With `O=C1CCC(N2Cc3cc(OC[C@H]4CCCCN4Cc4ccc[nH]c4=O)ccc3C2=O)C(=O)N1` (stereo partly drawn) [Compound I-50dp], the Dmax under setting [1] came out at 65.5%. Besides, under setting [2], the remaining activity at up to 25 µM came to 34.5%. Also, the DC50 under setting [3] was 6840 nM.
On to `O=C1CCC(N2Cc3cc(OC[C@H]4CCCCN4Cc4ccccc4OCC(=O)N4CCCCC4)ccc3C2=O)C(=O)N1` (stereo partly drawn) [Compound I-50dq], for which, under setting [1], the Dmax was 71.2%. The remaining activity at up to 25 µM under setting [2] was found to be 28.8%. Further, under setting [3], the DC50 stood at 770 nM.
For `O=C1CCC(N2Cc3cc(OC[C@H]4CCCCN4Cc4ccnc(N5CCOCC5)c4)ccc3C2=O)C(=O)N1` (stereo partly drawn) [Compound I-50dr] the same measures were 85.5%, 14.5% and 97 nM.
As for `O=C1CCC(N2Cc3cc(OC[C@H]4CCCCN4Cc4c[nH]cn4)ccc3C2=O)C(=O)N1` (stereo partly drawn) [Compound I-50ds], the Dmax under setting [1] is 70.8%. Moreover, the remaining activity at up to 25 µM under setting [2] came to 29.2%. Besides, the DC50 under setting [3] is 3040 nM.
`N#Cc1ccn2cc(CN3CCCC[C@@H]3COc3ccc4c(c3)CN(C3CCC(=O)NC3=O)C4=O)nc2c1` (stereo partly drawn) [Compound I-50dt]: under setting [1], the Dmax is 67%. Besides, the remaining activity at up to 25 µM under setting [2] was determined as 33%. Also, the DC50 under setting [3] was 2740 nM.
The matching figures for `Cc1nc(-c2cccc(CN3CCCC[C@@H]3COc3ccc4c(c3)CN(C3CCC(=O)NC3=O)C4=O)c2)no1` (stereo partly drawn) [Compound I-50du]: 78.4%, 21.6% and 4260 nM.
Consider `Cc1nnc(-c2ccc(CN3CCCC[C@@H]3COc3ccc4c(c3)CN(C3CCC(=O)NC3=O)C4=O)cc2)o1` (stereo partly drawn) [Compound I-50dv], for which the Dmax under setting [1] turned out to be 65%. Also, the remaining activity at up to 25 µM under setting [2] worked out at 35%. In addition, the DC50 under setting [3] turned out to be 2990 nM.
The matching figures for `CC(C)Cn1cc(CN2CCCC[C@@H]2COc2ccc3c(c2)CN(C2CCC(=O)NC2=O)C3=O)cn1` (stereo partly drawn) [Compound I-50dw]: 99%, 1% and 8 nM.
For the molecule `O=C1CCC(N2Cc3cc(OC[C@H]4CCCCN4Cc4ccc(N5CCOCC5)cc4)ccc3C2=O)C(=O)N1` (stereo partly drawn) [Compound I-50dx], the Dmax under setting [1] was determined as 98%. For the same molecule, the remaining activity at up to 25 µM under setting [2] stood at 2%. Besides, the DC50 under setting [3] came out at 2 nM.
Consider `Cn1ccc2c(CN3CCCC[C@@H]3COc3ccc4c(c3)CN(C3CCC(=O)NC3=O)C4=O)cccc21` (stereo partly drawn) [Compound I-50dy], for which the Dmax under setting [1] came out at 96.6%. Besides, under setting [2], the remaining activity at up to 25 µM came out at 3.4%. The DC50 under setting [3] is 19 nM.
The matching figures for `N#Cc1ccccc1CN1CCCC[C@@H]1COc1ccc2c(c1)CN(C1CCC(=O)NC1=O)C2=O` (stereo partly drawn) [Compound I-50dz]: 62.8%, 37.2% and 3270 nM.
Consider `O=C1CCC(N2Cc3cc(OC[C@@H]4CCCCN4Cc4cocn4)ccc3C2=O)C(=O)N1` (stereo partly drawn) [Compound I-50e], for which the Dmax under setting [1] came to 41.1%. Further, the remaining activity at up to 25 µM under setting [2] came out at 58.9%. For the same molecule, the DC50 under setting [3] is above 25000 nM.
In the case of `CC(C)N1CCC(CN2CCCC[C@@H]2COc2ccc3c(c2)CN(C2CCC(=O)NC2=O)C3=O)CC1` (stereo partly drawn) [Compound I-50ea], the Dmax under setting [1] worked out at 81%. Further, under setting [2], the remaining activity at up to 25 µM stood at 19%. The DC50 under setting [3] turned out to be 651 nM.
In the case of `CCN(CC)c1ccc(CN2CCCC[C@@H]2COc2ccc3c(c2)CN(C2CCC(=O)NC2=O)C3=O)cn1` (stereo partly drawn) [Compound I-50eb], the Dmax under setting [1] was 98.5%. The remaining activity at up to 25 µM under setting [2] worked out at 1.5%. In addition, the DC50 under setting [3] turned out to be 2 nM.
For `O=C1CCC(N2Cc3cc(OC[C@H]4CCCCN4Cc4cnn(C5CCCCC5)c4)ccc3C2=O)C(=O)N1` (stereo partly drawn) [Compound I-50ec] the same measures were 100%, 0% and 17 nM.
As to `O=C1CCC(N2Cc3cc(OC[C@H]4CCCCN4Cc4ccccc4OCCN4CCOCC4)ccc3C2=O)C(=O)N1` (stereo partly drawn) [Compound I-50ed], the Dmax under setting [1] is 92.3%. Besides, under setting [2], the remaining activity at up to 25 µM came out at 7.7%. In addition, under setting [3], the DC50 turned out to be 100 nM.
With `NS(=O)(=O)c1ccc(CN2CCCC[C@@H]2COc2ccc3c(c2)CN(C2CCC(=O)NC2=O)C3=O)cc1` (stereo partly drawn) [Compound I-50ef], where the note is “HEK-293T, read-out: % degradation of WIZ (100-Amax)”, the Dmax stood at 85.2%. Further, the remaining activity (HEK-293T, read-out: WIZ Amax) worked out at 14.8%. The DC50 (read-out: WIZ AC50; WIZ HiBit assay in 293T cells; 10-point, 5-fold dose response, highest concentration 25 μM, about 18 hours) is 1460 nM.
With `O=C1CCC(N2Cc3cc(OC[C@H]4CCCCN4Cc4ccc(-n5nccn5)cc4)ccc3C2=O)C(=O)N1` (stereo partly drawn) [Compound I-50eg], under setting [1], the Dmax was found to be 99.6%. Further, the remaining activity at up to 25 µM under setting [2] is 0.4%. Moreover, the DC50 under setting [3] was found to be 4 nM.
As for `O=C1CCC(N2Cc3cc(OC[C@H]4CCCCN4Cc4cccc(Cn5ccnc5)c4)ccc3C2=O)C(=O)N1` (stereo partly drawn) [Compound I-50eh], under setting [1], the Dmax stood at 97.2%. Under setting [2], the remaining activity at up to 25 µM is 2.8%. Moreover, the DC50 under setting [3] stood at 13 nM.
On to `O=C1CCC(N2Cc3cc(OC[C@H]4CCCCN4Cc4cc(-n5nnnc5C(F)(F)F)ccc4O)ccc3C2=O)C(=O)N1` (stereo partly drawn) [Compound I-50ei], for which the Dmax under setting [1] was 31.4%. In addition, under setting [2], the remaining activity at up to 25 µM is 68.6%. Also, under setting [3], the DC50 was above 25000 nM.
For `O=C1CCC(N2Cc3cc(OC[C@H]4CCCCN4Cc4ncccc4O)ccc3C2=O)C(=O)N1` (stereo partly drawn) [Compound I-50ej], under setting [1], the Dmax is 17.2%. Besides, the remaining activity at up to 25 µM under setting [2] turned out to be 82.8%. Besides, the DC50 under setting [3] was above 25000 nM.
For `O=C1CCC(N2Cc3cc(OC[C@H]4CCCCN4Cc4ccc(Cn5ccnc5)cc4)ccc3C2=O)C(=O)N1` (stereo partly drawn) [Compound I-50ek], under setting [1], the Dmax was 99.1%. For the same molecule, the remaining activity at up to 25 µM under setting [2] was 0.9%. Besides, the DC50 under setting [3] was found to be 4 nM.
Regarding `Cc1noc(C)c1CN1CCCC[C@@H]1COc1ccc2c(c1)CN(C1CCC(=O)NC1=O)C2=O` (stereo partly drawn) [Compound I-50el], the Dmax under setting [1] was found to be 30.3%. Besides, the remaining activity at up to 25 µM under setting [2] came out at 69.7%. In addition, under setting [3], the DC50 was above 25000 nM.
As to `O=C1CCC(N2Cc3cc(OC[C@H]4CCCCN4Cc4cccc(Cn5cccn5)c4)ccc3C2=O)C(=O)N1` (stereo partly drawn) [Compound I-50en], the Dmax under setting [1] was found to be 99.8%. The remaining activity at up to 25 µM under setting [2] was determined as 0.2%. Further, the DC50 under setting [3] was determined as 4 nM.
The matching figures for `CCn1cc(CN2CCCC[C@@H]2COc2ccc3c(c2)CN(C2CCC(=O)NC2=O)C3=O)cn1` (stereo partly drawn) [Compound I-50eo]: 94%, 6% and 74 nM.
On to `Cc1nnsc1CN1CCCC[C@@H]1COc1ccc2c(c1)CN(C1CCC(=O)NC1=O)C2=O` (stereo partly drawn) [Compound I-50ep], for which the Dmax under setting [1] amounted to 12.4%. Under setting [2], the remaining activity at up to 25 µM is 87.6%. For the same molecule, the DC50 under setting [3] is above 25000 nM.
For the molecule `Cc1cc(CN2CCCC[C@@H]2COc2ccc3c(c2)CN(C2CCC(=O)NC2=O)C3=O)no1` (stereo partly drawn) [Compound I-50eq], the Dmax under setting [1] was found to be 88.4%. Also, the remaining activity at up to 25 µM under setting [2] was 11.6%. In addition, under setting [3], the DC50 stood at 272 nM.
The matching figures for `CCOC(=O)c1cccc2[nH]nc(CN3CCCC[C@@H]3COc3ccc4c(c3)CN(C3CCC(=O)NC3=O)C4=O)c12` (stereo partly drawn) [Compound I-50er]: 89.8%, 10.2% and 920 nM.
For the molecule `O=C1CCC(N2Cc3cc(OC[C@H]4CCCCN4Cc4ccc(N5CCCC5)nc4)ccc3C2=O)C(=O)N1` (stereo partly drawn) [Compound I-50es], under setting [1], the Dmax was found to be 99.5%. Besides, under setting [2], the remaining activity at up to 25 µM worked out at 0.5%. Under setting [3], the DC50 turned out to be 3 nM.
For the molecule `O=C1CCC(N2Cc3cc(OC[C@H]4CCCCN4Cc4ncc[nH]4)ccc3C2=O)C(=O)N1` (stereo partly drawn) [Compound I-50et], under setting [1], the Dmax amounted to 49.1%. Moreover, the remaining activity at up to 25 µM under setting [2] was found to be 50.9%. For the same molecule, under setting [3], the DC50 is above 25000 nM.
The matching figures for `COc1cc(CN2CCCC[C@@H]2COc2ccc3c(c2)CN(C2CCC(=O)NC2=O)C3=O)ccc1C` (stereo partly drawn) [Compound I-50eu]: 99.3%, 0.7% and 3 nM.
The matching figures for `COc1cc2[nH]nc(CN3CCCC[C@@H]3COc3ccc4c(c3)CN(C3CCC(=O)NC3=O)C4=O)c2cc1OCc1ccccc1` (stereo partly drawn) [Compound I-50ev]: 98%, 2% and 51 nM.
Turning to `Cc1nccn1-c1ccc(CN2CCCC[C@@H]2COc2ccc3c(c2)CN(C2CCC(=O)NC2=O)C3=O)cc1` (stereo partly drawn) [Compound I-50ew], under setting [1], the Dmax was 99.3%. Further, the remaining activity at up to 25 µM under setting [2] came out at 0.7%. Besides, the DC50 under setting [3] is 26 nM.
`O=C1CCC(N2Cc3cc(OC[C@@H]4CCCCN4Cc4cccn4S(=O)(=O)c4ccccc4)ccc3C2=O)C(=O)N1` (stereo partly drawn) [Compound I-50f]: under setting [1], the Dmax is 82.6%. Besides, the remaining activity at up to 25 µM under setting [2] came to 17.4%. Under setting [3], the DC50 turned out to be 816 nM.
For `COC(=O)c1ccc(Oc2ccc(CN3CCCC[C@H]3COc3ccc4c(c3)CN(C3CCC(=O)NC3=O)C4=O)cc2)cc1` (stereo partly drawn) [Compound I-50g] the same measures were 88.9%, 11.1% and 97 nM.
Take `N#Cc1ccccc1CN1CCCC[C@H]1COc1ccc2c(c1)CN(C1CCC(=O)NC1=O)C2=O` (stereo partly drawn) [Compound I-50h]: the Dmax under setting [1] amounted to 59.4%. Besides, the remaining activity at up to 25 µM under setting [2] is 40.6%. The DC50 under setting [3] turned out to be 13600 nM.
Regarding `Cc1nnc(-c2ccc(CN3CCCC[C@H]3COc3ccc4c(c3)CN(C3CCC(=O)NC3=O)C4=O)cc2)o1` (stereo partly drawn) [Compound I-50i], the Dmax under setting [1] is 28.8%. Also, the remaining activity at up to 25 µM under setting [2] came out at 71.2%. In addition, the DC50 under setting [3] is above 25000 nM.
For `O=C1CCC(N2Cc3cc(OC[C@@H]4CCCCN4Cc4ccc(C(=O)N5CCCC5)cc4)ccc3C2=O)C(=O)N1` (stereo partly drawn) [Compound I-50j] the same measures were 65.4%, 34.6% and 3490 nM.
For `O=C1CCC(N2Cc3cc(OC[C@@H]4CCCCN4Cc4ccc[nH]c4=O)ccc3C2=O)C(=O)N1` (stereo partly drawn) [Compound I-50k] the same measures were 34.7%, 65.3% and above 25000 nM.
